These results are taken from US20100137294A1, “COMPOUNDS, COMPOSITIONS AND METHODS FOR CONTROLLING INVERTEBRATE PESTS” (GENETIC TECHNOLOGIES LIMITED, priority 2006, published 2010).

One data set has as its system T. vitrinus L3 larvae. As to the kind of experiment: Testing of compounds on T. vitrinus L3 larvae (96-well microplate larval kill assay). Type of data set: cell-based, Trichostrongylus vitrinus. As to conditions: primary screening, 5 mM compound, 5% DMSO, overnight RT. On the procedure: The ability of the compounds to kill T. vitrinus L3 larvae was tested. The L3 stage is encased in a sheath, which protects the larva from external stresses such as desiccation and chemicals. This makes it more difficult to kill this part of the lifecycle with chemotherapeutic agents. The tests will determine which compounds can kill this lifestage, therefore defining which compounds can penetrate through the sheath and subsequently kill the larva.
The L3 stage of T. vitrinus were collected and stored in water at 4° C. until needed. Each compound was suspended in 100% dimethyl sulphoxide (DMSO) to a final concentration of 100 mM.
Around fifty L3 larvae were added, in 95 μl of water, to the wells of a 96-well microtitre plate. The plate was incubated overnight RT. Plates were viewed under a binocular microscope and the proportion of dead L3 larvae in the controls and each treatment were scored. Concentrations above 5 mM were not tested as DMSO alone kills larvae when the proportion exceeds 5% of the total volume. Many of the compounds are predicted to have limited solubility in aqueous solution, thus requiring the presence of organic solvent. The appropriate controls included wells with and without various concentrations of DMSO alone.
Three compounds ((4), (10) and (20)) could also kill 100% of larvae exposed at 0.5 mM.
Consider `CCCN1C(=O)C2C(C1=O)[C@H]1CC[C@@H]2O1` (some centres unmarked) [Compound 4, N-propyl-7-Oxabicyclo(2.2.1)heptane-2,3-dicarboximide], for which the “% of T. vitrinus L3 larvae killed” value was found to be 100%.
Same read-out and setting: the value for `CCCCN1C(=O)C2C3CCC(O3)C2C1=O` (centres unmarked) [Compound 5, N-butyl-7-Oxabicyclo(2.2.1)heptane-2,3-dicarboximide] was 100%; that for `CCCCCCCCN1C(=O)C2C3CCC(O3)C2C1=O` (centres unmarked) [Compound 6, N-octyl-7-Oxabicyclo(2.2.1)heptane-2,3-dicarboximide] was 100%; that for `CCCCCCCCCCN1C(=O)C2C3CCC(O3)C2C1=O` (centres unmarked) [Compound 7, N-decyl-7-Oxabicyclo(2.2.1)heptane-2,3-dicarboximide] was 100%.
On the same count and under the same terms, with `O=C(O)C1C(C(=O)NCCN2CCOCC2)[C@H]2CC[C@@H]1O2` (some centres unmarked) [Compound 12, 3-(Ethylmorpholinecarbamoyl)-7-Oxabicyclo(2.2.1)heptane-2-carboxylic acid] the figure was 100%; with `O=C(O)C(Cc1ccc(O)cc1)N1C(=O)C2C(C1=O)[C@H]1CC[C@@H]2O1` (some centres unmarked) [Compound 19], 100%.
Same read-out and setting: the value for `O=C1NC(=O)C2C1[C@@H]1CC[C@H]2O1` (stereo partly drawn) [Compound 20, exo-7-Oxabicyclo(2.2.1)heptane-2,3-dicarboximide] was 100%.

The data set is the same for the next values; noted with them: secondary screening, serial ten-fold dilutions, 0.5 mM.
With `CCCN1C(=O)C2C(C1=O)[C@H]1CC[C@@H]2O1` (some centres unmarked) [Compound 4, N-propyl-7-Oxabicyclo(2.2.1)heptane-2,3-dicarboximide], the “% of T. vitrinus L3 larvae killed” value was 100%.
The same measure, in the same setting: with `O=C1NC(=O)C2C1[C@@H]1CC[C@H]2O1` (stereo partly drawn) [Compound 20, exo-7-Oxabicyclo(2.2.1)heptane-2,3-dicarboximide] the figure was 100%.

Test system in the next data set: not given
Experiment: not given
Details: not given
The compound `O=C(O)C1C(C(=O)N2CCCCC2)[C@H]2CC[C@@H]1O2` (some centres unmarked) displayed a melting point of 140 to 142 °C.
On the same count and under the same terms, with `CC(C)(C)c1ccccc1NC(=O)C1C(C(=O)O)[C@@H]2CC[C@H]1O2` (some centres unmarked) the figure was 163 to 164 °C; with `CCC(C)C12CCC(O1)C1C(=O)NC(=O)C12` (centres unmarked), 44 to 46 °C.
As to `O=C1NC(=O)C2C1C1CCC2(C2CCCCC2)O1` (centres unmarked), the melting point was in the range of 97 to 99 °C.
Compound `CCCCCCCCCCCCC12CCC(O1)C1C(=O)NC(=O)C12` (centres unmarked) displayed a melting point of 35 to 37 °C.
Still for that read-out and setting: with `CCCCCCCCCCCCCCC12CCC(O1)C1C(=O)NC(=O)C12` (centres unmarked) the figure was 45 to 46 °C; with `CCCCCCCCCCCCCCCCCCC12CCC(O1)C1C(=O)NC(=O)C12` (centres unmarked), 62 to 64 °C.
The same measure, in the same setting: the value for `C=CCC12CCC(O1)C1C(=O)NC(=O)C12` (centres unmarked) was 116 to 117 °C; that for `O=C1NC(=O)C2C1C1CCC2(CCCO)O1` (centres unmarked) was 164 to 166 °C.
On to `O=C1NC(=O)C2C1C1CCC2(CCCCCCO)O1` (centres unmarked), for which the melting point was 56 to 57 °C.
`CC(CO)C12CCC(O1)C1C(=O)NC(=O)C12` (centres unmarked) showed a melting point of 104 to 107 °C.
Compound `CC(C)(CO)C12CCC(O1)C1C(=O)NC(=O)C12` (centres unmarked) yielded a melting point of 134 to 136 °C.
Same read-out and setting: with `O=C1NC(=O)C2C1C1CCC2(N2CCOCC2)O1` (centres unmarked) the figure was 169 to 171 °C; with `O=C1NC(=O)C2C1C1CCC2(c2ccccc2)O1` (centres unmarked), 171 to 172 °C; with `O=C1NC(=O)C2C1C1CCC2(c2ccc([N+](=O)[O-])cc2)O1` (centres unmarked), 207 to 209 °C.
Still for that read-out and setting: the value for `COc1ccc(CC23CCC(O2)C2C(=O)NC(=O)C23)cc1` (centres unmarked) was 83 to 85 °C; that for `COc1ccc(CC23CCC(O2)C2C(=O)NC(=O)C23)cc1OC` (centres unmarked) was 155 to 157 °C.
As for `Nc1ccccc1CC12CCC(O1)C1C(=O)NC(=O)C12` (centres unmarked), the melting point was 159 to 160 °C.
Still for that read-out and setting: the value for `CCCCN(C(=O)C1C2CCC(O2)C1C(=O)O)c1ccccc1` (centres unmarked) was 105 to 107 °C.
On the same count and under the same terms, with `CN(C)CCOc1ccc(N2C(=O)C3C(C2=O)[C@H]2CC[C@@H]3O2)cc1` (some centres unmarked) the figure was 145 to 146 °C.
For `C=CCCN1C(=O)C2C(C1=O)[C@H]1CC[C@@H]2O1` (some centres unmarked), the melting point is 64 to 65 °C.
On the same count and under the same terms, with `CCC12CCC(O1)C1C(=O)NC(=O)C12` (centres unmarked) the figure was 166 to 169 °C.
In the case of `O=C(O)C1C(C(=O)NC2CCN(Cc3ccccc3)CC2)[C@H]2CC[C@@H]1O2` (stereo in doubt), the melting point lay in the range of 124 to 125 °C.
Regarding `O=C(O)c1ccc(NC(=O)C2C(C(=O)O)[C@@H]3CC[C@H]2O3)cc1Cl` (stereo in doubt), the melting point fell in the range of 216 to 217 °C.
On the same count and under the same terms, with `CCCCCCCCNC(=O)C1C(C(=O)O)[C@@H]2CC[C@H]1O2` (stereo in doubt) the figure was 131 °C; with `CCCCCCCCCCNC(=O)C1C(C(=O)O)[C@@H]2CC[C@H]1O2` (stereo in doubt), 110 to 111 °C; with `C=CCNC(=O)C1C(C(=O)O)[C@@H]2CC[C@H]1O2` (stereo in doubt), 105 to 107 °C.
With `CCc1ccccc1NC(=O)C1C(C(=O)O)[C@@H]2CC[C@H]1O2` (stereo in doubt), the melting point lay in the range of 171 to 172 °C.
For the compound `O=C(O)CCCCCCCNC(=O)C1C(C(=O)O)[C@@H]2CC[C@H]1O2` (stereo in doubt) [Compound 18, 3-(7-Carboxyheptylcarbamoyl)-7-oxabicyclo[2.2.1]heptane-2-carboxylic acid], the melting point lay in the range of 125 to 126 °C.
Same read-out and setting: the value for `Cn1ccc2c(CNC(=O)C3C(C(=O)O)[C@@H]4CC[C@H]3O4)cccc21` (stereo in doubt) [Compound 80, 3-[(1-Methyl-1H-indol-4-yl)methylcarbamoyl]-7-oxabicyclo[2.2.1]heptane-2-carboxylic acid] was 161 °C; that for `O=C(O)CCCN1C(=O)C2C(C1=O)[C@H]1CC[C@@H]2O1` (some centres unmarked) [Compound 13, N-Butanoic acid-7-Oxabicyclo(2.2.1)heptane-2,3-dicarboximide] was 162 to 164 °C; that for `O=C(O)CCCCCN1C(=O)C2C(C1=O)[C@H]1CC[C@@H]2O1` (some centres unmarked) [Compound 14, N-Hexanoic acid-7-Oxabicyclo(2.2.1)heptane-2,3-dicarboximide] was 110 to 112 °C.
`O=C1C2C(C(=O)N1CCO)[C@H]1CC[C@@H]2O1` (some centres unmarked) [Compound 15, N-Ethyl alcohol-7-Oxabicyclo(2.2.1)heptane-2,3-dicarboximide] gave a melting point of 164 to 166 °C.
On the same count and under the same terms, the value for `COC(CO)CN1C(=O)[C@@H]2[C@H](C1=O)[C@H]1CC[C@@H]2O1` (some centres unmarked) [Compound 16, N-2-Methoxypropyl-1-ol-7-Oxabicyclo(2.2.1)heptane-2,3-dicarboximide] was 96 to 97 °C; that for `O=C1C2C(C(=O)N1c1ncccc1OCc1ccccc1)[C@H]1CC[C@@H]2O1` (some centres unmarked) [Compound 77, 3-[3-(Benzyloxy)pyridin-2-yl]-10-oxa-4-azatricyclo[5.2.1]decane-3,5-dione] was 99 to 102 °C; that for `CN(C)CCOc1ccccc1N1C(=O)C2C(C1=O)[C@H]1CC[C@@H]2O1` (some centres unmarked) [Compound 79, 4,{2,[2-(Dimethylamino)ethoxy]phenyl}-10-oxa-4-azatricyclo[5.2.1]decane-3,5-dione] was 113 to 115 °C.
As for `O=C(O)C1C(C(=O)NCC2OCCc3sccc32)[C@H]2CC[C@@H]1O2` (some centres unmarked) [Compound 81, 3,[(6,7-Dihydro-4H-thieno[3,2-c]pyran-4-yl)methylcarbamoyl]-7-oxabicyclo[2.2.1]heptane-2-carboxylic acid], the melting point lay within 159 to 160 °C.

A further data set concerns H. contortus L3 larvae. As to the kind of experiment: Testing compounds on H. contortus L3 larvae (96-well microplate larval kill assay). Type of data set: cell-based, Haemonchus contortus. As to conditions: secondary screening, sequential ten-fold dilutions of 5 mM down to 0.5. The procedure: The L3 stage of H. contortus was collected from the faeces of experimentally infected sheep and stored in water at room temperature until needed. A stock solution of each compound was prepared by suspending the compound in 100% dimethyl sulphoxide (DMSO) to a final concentration of 100 mM.
For this set of experiments, Trichostrongylus vitrinus (T. vitrinus) L3 larvae were used as positive controls by testing with the compounds identified in previous experiments as being able to kill all larvae. Approximately 50 L3 larvae of each species were added, in 95 μl of water, to the wells of a 96-well microtitre plate. All compounds were tested initially at a concentration of 5 mM by adding 5 μl of inhibitor in 100% DMSO.
The plates were incubated overnight at room temperature (RT). Plates were viewed under a binocular microscope and the compounds showing 100% kill of H. contortus larvae were determined. Concentrations above 5 mM were not tested as DMSO alone kills larvae when the proportion exceeds 5% of the total volume. Many of the compounds are predicted to have limited solubility in aqueous solution, thus requiring the presence of organic solvent. Additional controls included wells with and without various concentrations of DMSO alone.
Eight inhibitors, from the primary screening, appeared to kill 90-100% of H. contortus L3 larvae at a concentration of 5 mM. […]
For `O=C1C2C(C(=O)N1CCO)[C@H]1CC[C@@H]2O1` (some centres unmarked) [Compound 15, N-Ethyl alcohol-7-Oxabicyclo(2.2.1)heptane-2,3-dicarboximide], the “killing of H. contortus L3 larvae across the dilution series” value was “killed the larvae at the highest and lowest concentrations used”.
